Assay results reported in ChEMBL document CHEMBL1154660, “Synthesis of pyrrolo[2,3-d]pyrimidine derivatives and their antiproliferative activity against melanoma cell line” (Bioorg Med Chem Lett, 2009).

Experiments:
[1] = Antiproliferative activity against human A375P cells after 24 hrs by MTT assay; type: functional, cell-based
HS27 = assay: Antiproliferative activity against human HS27 cells after 24 hrs by MTT assay; type: cell-based; conditions: HS27, 24 h

## CC(=O)Nc1ncnc2c1ccn2-c1ccc(NC(=O)c2ccc(Cl)c(C(F)(F)F)c2)cc1
[1]
  IC50: > 10 µM
HS27
  IC50: > 10 µM

## O=C(Nc1ccc(-n2ccc3c(NC(=O)c4ccccc4)ncnc32)cc1)c1cccc(C(F)(F)F)c1
[1]
  IC50: 4.7 µM
HS27
  IC50: 5.9 µM

## O=C(Nc1ccc(-n2ccc3c(NC(=O)c4ccccc4)ncnc32)cc1)c1ccc(Cl)c(C(F)(F)F)c1
[1]
  IC50: 2.3 µM
HS27
  IC50: 5.5 µM

## Nc1ncnc2c1ccn2-c1ccc(NC(=O)Nc2ccc(Cl)c(Cl)c2)cc1
[1]
  IC50: 5.4 µM
HS27
  IC50: 2.9 µM

## Nc1ncnc2c1ccn2-c1ccc(NC(=O)Nc2cc(C(F)(F)F)cc(C(F)(F)F)c2)cc1
[1]
  IC50: 3 µM
HS27
  IC50: 9.5 µM

## Nc1ncnc2c1ccn2-c1ccc(NC(=O)Nc2ccc(Cl)c(C(F)(F)F)c2)cc1
[1]
  IC50: 8.1 µM
HS27
  IC50: > 10 µM

## O=C(Nc1ccc(-n2ccc3c(NC(=O)c4ccccc4)ncnc32)cc1)c1ccc(Cl)c(Cl)c1
[1]
  IC50: 2 µM
HS27
  IC50: 5 µM

## O=C(Nc1ccc(-n2ccc3c(NC(=O)c4ccccc4)ncnc32)cc1)Nc1cc(C(F)(F)F)cc(C(F)(F)F)c1
[1]
  IC50: 9.8 µM
HS27
  IC50: > 10 µM

## O=C(Nc1ccc(-n2ccc3c(NC(=O)c4ccccc4)ncnc32)cc1)Nc1cccc(Cl)c1Cl
[1]
  IC50: 4.1 µM
HS27
  IC50: 7.8 µM

## CC(=O)Nc1ncnc2c1ccn2-c1ccc(NC(=O)Nc2ccc(Cl)c(C(F)(F)F)c2)cc1
[1]
  IC50: > 10 µM
HS27
  IC50: > 10 µM

## O=C(Nc1ccc(-n2ccc3c(NC(=O)c4ccccc4)ncnc32)cc1)Nc1ccc(Cl)c(Cl)c1
[1]
  IC50: 4 µM
HS27
  IC50: 4.5 µM

## CNC(=O)c1cc(Oc2ccc(NC(=O)Nc3ccc(Cl)c(C(F)(F)F)c3)cc2)ccn1 [SORAFENIB]
[1]
  IC50: 5.6 µM

## O=C(Nc1ccc(-n2ccc3c(NC(=O)c4ccccc4)ncnc32)cc1)c1cc(C(F)(F)F)cc(C(F)(F)F)c1
[1]
  IC50: 2 µM
HS27
  IC50: 6.6 µM

## O=C(Nc1ccc(-n2ccc3c(NC(=O)c4ccccc4)ncnc32)cc1)c1ccc(N2CCOCC2)c(C(F)(F)F)c1
[1]
  IC50: 0.9 µM
HS27
  IC50: 1.6 µM

## Nc1ncnc2c1ccn2-c1ccc(NC(=O)c2cccc(C(F)(F)F)c2)cc1
[1]
  IC50: 9.7 µM
HS27
  IC50: 7.1 µM

## O=C(Nc1ccc(-n2ccc3c(NC(=O)c4ccccc4)ncnc32)cc1)Nc1ccc(Cl)c(C(F)(F)F)c1
[1]
  IC50: 4.6 µM
HS27
  IC50: 6 µM

## CC(=O)Nc1ncnc2c1ccn2-c1ccc(NC(=O)Nc2cccc(Cl)c2Cl)cc1
[1]
  IC50: > 10 µM
HS27
  IC50: > 10 µM

## Nc1ncnc2c1ccn2-c1ccc(NC(=O)c2ccc(Cl)c(C(F)(F)F)c2)cc1
[1]
  IC50: 2.9 µM
HS27
  IC50: 5.6 µM

## Cc1cn(-c2cc(C(=O)Nc3ccc(-n4ccc5c(NC(=O)c6ccccc6)ncnc54)cc3)cc(C(F)(F)F)c2)cn1
[1]
  IC50: 0.8 µM
HS27
  IC50: 2.8 µM

## O=C(Nc1ccc(-n2ccc3c(NC(=O)c4ccccc4)ncnc32)cc1)Nc1cccc(C(F)(F)F)c1
[1]
  IC50: 9.5 µM
HS27
  IC50: 4.5 µM
